Measurements as given in patent US6878722B2, “Substituted cycloalkyl P1′ hepatitis C virus inhibitors” (Bristol-Myers Squibb Company, priority 2002, dated 2005).
Like-named read-outs stand apart in the source and are kept apart here.

Assays:
[1] = molecular target: T1, HCV NS3/4A protease complex (BMS strain, genotype 1a) (Hepatitis C virus genotype 1a, UniProt P27958, C1454S); assay: Recombinant HCV NS3/4A protease complex FRET peptide assay, BMS strain; type: biochemical; conditions: IC50 range, NS3/4A BMS Strain
T1 construct: DNA encoding the recombinant HCV NS3/4A protease complex (amino acids 1027 to 1711) for these strains; inferred from the pET21b vector and Ni-NTA purification; made in house; host or cells: Escherichia coli BL21 (DE3), pET21b
T1 sequence (P27958 1658-1714, looked up, stated change not applied): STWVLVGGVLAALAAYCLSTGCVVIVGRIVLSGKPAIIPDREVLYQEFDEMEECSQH
T1 sequence (P27958 1027-1657, looked up, stated change not applied): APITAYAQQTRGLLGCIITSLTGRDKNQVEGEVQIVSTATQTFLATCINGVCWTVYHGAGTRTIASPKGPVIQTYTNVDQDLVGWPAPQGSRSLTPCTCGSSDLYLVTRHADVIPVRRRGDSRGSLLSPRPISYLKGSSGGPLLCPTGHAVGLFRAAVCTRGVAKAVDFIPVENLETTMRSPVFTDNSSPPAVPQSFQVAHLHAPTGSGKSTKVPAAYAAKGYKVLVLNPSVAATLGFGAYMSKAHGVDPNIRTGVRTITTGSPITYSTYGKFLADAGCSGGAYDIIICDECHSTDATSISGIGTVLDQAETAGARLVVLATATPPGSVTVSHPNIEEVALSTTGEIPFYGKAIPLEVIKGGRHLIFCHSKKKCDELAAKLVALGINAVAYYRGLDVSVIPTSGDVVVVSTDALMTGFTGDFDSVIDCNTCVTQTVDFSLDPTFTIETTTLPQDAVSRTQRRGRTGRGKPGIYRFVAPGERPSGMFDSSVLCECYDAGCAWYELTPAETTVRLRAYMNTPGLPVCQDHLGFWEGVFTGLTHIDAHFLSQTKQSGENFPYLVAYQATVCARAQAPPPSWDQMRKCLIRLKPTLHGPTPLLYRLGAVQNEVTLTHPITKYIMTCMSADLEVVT
Summary of the method: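 Recombinant NS3/4A complex (aa 1027–1711) with C-terminal three-lysine tail, C1711G and C1454S, expressed in E. coli BL21(DE3) and purified by Ni-NTA then Superdex-S200. Inhibition of the complex from each strain measured in vitro by FRET peptide cleavage.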

[2] = tested on: HCV replicon in Huh7 cells; assay: HCV replicon cell-based assay (FRET); conditions: Hepatitis C virus
Summary of the method: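 Huh7 cells stably carrying a genotype 1b HCV replicon (IRES-neo-EMCV-IRES-NS3-NS5B) were treated with compound for 4 days at 37 °C in 0.5% DMSO final. Lysates containing 10 μM FRET peptide RET S1 were read kinetically at 340/490 nm to give NS3 protease activity, from which EC50 was derived.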

[3] = Huh-7, HCV replicon, read-out: EC50 range

## C=CC1C[C@]1(NC(=O)[C@@H]1C[C@@H](Oc2cc(-c3ccccc3)nc3cc(OC)ccc23)CN1C(=O)[C@@H](NC(=O)OC(C)(C)C)C(C)(C)C)C(=O)NS(=O)(=O)C1(Cc2ccccc2)CC1 (stereo in doubt) [Compound 5, {1-[2-[1-(1-Benzylcyclopropanesulfonyl-aminocarbonyl)-2-vinyl-cyclopropylcarbamoyl]-4-(7-methoxy-2-phenylquinolin-4-yloxy)-pyrrolidine-1-carbonyl]-2,2-dimethylpropyl}-carbamic acid tert-butyl ester]
[1]
  IC50: < 50 nM
[2]; [3]
  EC50: < 50 nM

## C=C[C@@H]1C[C@]1(NC(=O)[C@@H]1C[C@@H](Oc2cc(-c3nc(C(C)C)cs3)nc3cc(OC)ccc23)CN1C(=O)[C@@H](NC(=O)OC(C)(C)C)C(C)(C)C)C(=O)OS(=O)(=O)C1(CCC)CC1 [Compound 77]
[1]
  IC50: < 50 nM
[2]; [3]
  EC50: < 50 nM

## C=C[C@@H]1C[C@]1(NC(=O)[C@@H]1C[C@@H](Oc2cc(-c3ccccc3)nc3cc(OC)ccc23)CN1C(=O)[C@@H](NC(=O)Oc1ccccc1OC)C(C)(C)C)C(=O)NS(=O)(=O)C1(Cc2ccccc2)CC1 [Compound 107]
[1]
  IC50: 50 to 500 nM
[2]; [3]
  EC50: 500 to 5000 nM

## C=C[C@@H]1C[C@]1(NC(=O)[C@@H]1C[C@@H](Oc2cc(-c3ccccc3)nc3cc(OC)ccc23)CN1C(=O)[C@@H](NC(=O)O[C@H]1CCOC1)C(C)(C)C)C(=O)NS(=O)(=O)C1(Cc2ccccc2)CC1 [Compound 57, {1-[2-[1-(1-Benzyl-cyclopropanesulfonylaminocarbonyl)-2-vinyl-cyclopropylcarbamoyl]-4-(7-methoxy-2-phenyl-quinolin-4-yloxy)-pyrrolidine-1-carbonyl]-2,2-dimethyl-propyl}-carbamic acid tetrahydro-furan-3-yl ester]
[1]
  IC50: < 50 nM
[2]; [3]
  EC50: 50 to 500 nM

## C=CC1C[C@]1(NC(=O)[C@@H]1C[C@@H](Oc2cc(-c3ccccc3)nc3cc(OC)ccc23)CN1C(=O)[C@@H](NC(=O)OC1CCCC1)C(C)(C)C)C(=O)NS(=O)(=O)C1(C)CC1 (stereo in doubt) [Compound 12, (1-{4-(7-Methoxy-2-phenyl-quinolin-4-yloxy)-2-[1-(1-methylcyclopropanesulfonyl-aminocarbonyl)-2-vinyl-cyclopropylcarbamoyl]-pyrrolidine-1-carbonyl}-2,2-dimethylpropyl)carbamic acid cyclopentyl ester]
[1]
  IC50: < 50 nM
[2]; [3]
  EC50: < 50 nM

## C=C[C@@H]1C[C@]1(NC(=O)[C@@H]1C[C@@H](Oc2cc(C3CC3)nc3cc(OC)ccc23)CN1C(=O)[C@@H](NC(=O)OC(C)(C)C)C(C)(C)C)C(=O)NS(=O)(=O)C1(Cc2ccccc2)CC1 [Compound 68, BOCNH—P3(L-t-BuGly)-P2[(4R)-(2-cyclopropyl-7-methoxyquinoline-4-oxo)-S-proline]-P1(1R,2S Vinyl Acca)-CONHSO2(1-benzylclopropan-1-yl)]
[1]
  IC50: < 50 nM
[2]; Huh-7, read-out: EC50 range
  EC50: 50 to 500 nM

## C=C[C@@H]1C[C@]1(NC(=O)[C@@H]1C[C@@H](Oc2cc(C3CC3)nc3cc(OC)ccc23)CN1C(=O)[C@@H](NC(=O)OC(C)(C)C)C(C)(C)C)C(=O)NS(=O)(=O)C1(CC2CC2)CC1 [Compound 70, (1-{4-(2-Cyclopropyl-7-methoxy-quinolin-4-yloxy)-2-[1-(1-cyclopropylmethyl-cyclopropanesulfonylaminocarbonyl)-2-vinyl-cyclopropylcarbamoyl]-pyrrolidine-1-carbonyl}-2,2-dimethyl-propyl)-carbamic acid tert-butyl ester]
[1]
  IC50: < 50 nM
[2]; [3]
  EC50: < 50 nM

## C=C[C@@H]1C[C@]1(NC(=O)[C@@H]1C[C@@H](Oc2cc(-c3ccccc3)nc3cc(OC)ccc23)CN1C(=O)[C@@H](NC(=O)OC(C)(C)C)C(C)(C)C)C(=O)NS(=O)(=O)C1(CCOCc2ccccc2)CC1 [Compound 36, {1-[2-{1-[1-(2-Benzyloxy-ethyl)-cyclopropanesulfonylaminocarbonyl]-2-vinyl-cyclopropylcarbamoyl}-4-(7-methoxy-2-phenyl-quinolin-4-yloxy)-pyrrolidine-1-carbonyl]-2,2-dimethyl-propyl}-carbamic acid tert-butyl ester]
[1]
  IC50: < 50 nM
[2]; [3]
  EC50: < 50 nM

## C=C[C@@H]1C[C@]1(NC(=O)[C@@H]1C[C@@H](Oc2cc(-c3ccccc3)nc3cc(OC)ccc23)CN1C(=O)[C@@H](NC(=O)OC(C)(C)C)C(C)(C)C)C(=O)NS(=O)(=O)C1(C(=C)C)CC1 [Compound 43, {1-[2-[1-(1-Isopropenyl-cyclopropanesulfonylaminocarbonyl)-2-vinyl-cyclopropylcarbamoyl]-4-(7-methoxy-2-phenyl-quinolin-4-yloxy)-pyrrolidine-1-carbonyl]-2,2-dimethyl-propyl}-carbamic acid tert-butyl ester]
[1]
  IC50: < 50 nM
[2]; [3]
  EC50: < 50 nM

## C=C[C@@H]1C[C@]1(NC(=O)[C@@H]1C[C@@H](Oc2cc(-c3ccccc3)nc3cc(OC)ccc23)CN1C(=O)[C@@H](NC(=O)OC(C)(C)C)C(C)(C)C)C(=O)NS(=O)(=O)C1(C=C(C)C)CC1 [Compound 44, [1-(4-(7-Methoxy-2-phenyl-quinolin-4-yloxy)-2-{1-[1-(2-methyl-propenyl)-cyclopropanesulfonylaminocarbonyl]-2-vinyl-cyclopropylcarbamoyl}-pyrrolidine-1-carbonyl)-2,2-dimethyl-propyl]-carbamic acid tert-butyl ester]
[1]
  IC50: < 50 nM
[2]; [3]
  EC50: 50 to 500 nM

## C=C[C@@H]1C[C@]1(NC(=O)[C@@H]1C[C@@H](Oc2cc(-c3ccccc3)nc3cc(OC)ccc23)CN1C(=O)[C@@H](NC(=O)OC(C)(C)C)C(C)(C)C)C(=O)NS(=O)(=O)C1(CC#CCC)CC1 [Compound 45, (1-{4-(7-Methoxy-2-phenyl-quinolin-4-yloxy)-2-[1-(1-pent-2-ynyl-cyclopropanesulfonylaminocarbonyl)-2-vinyl-cyclopropylcarbamoyl]-pyrrolidine-1-carbonyl}-2,2-dimethyl-propyl)-carbamic acid tert-butyl ester]
[1]
  IC50: < 50 nM
[2]; [3]
  EC50: < 50 nM

## COc1ccc2c(O[C@@H]3C[C@@H](C(=O)NC4(C(=O)NS(=O)(=O)C5(C(=O)Nc6ccccc6)CC5)CC4)N(C(=O)[C@@H](NC(=O)OC(C)(C)C)C(C)(C)C)C3)cc(-c3ccccc3)nc2c1 [Compound 72, (1-{4-(7-Methoxy-2-phenyl-quinolin-4-yloxy)-2-[1-(1-phenylcarbamoyl-cyclopropanesulfonylaminocarbonyl)-cyclopropylcarbamoyl]-pyrrolidine-1-carbonyl}-2,2-dimethyl-propyl)-carbamic acid tert-butyl ester]
[1]
  IC50: 500 to 5000 nM
[2]; [3]
  EC50: 5000 to 50000 nM

## C=C[C@@H]1C[C@]1(NC(=O)[C@@H]1C[C@@H](Oc2cc(-c3ccccc3)nc3cc(OC)ccc23)CN1C(=O)[C@@H](NC(=O)CC1CCOCC1)C(C)(C)C)C(=O)NS(=O)(=O)C1(Cc2ccccc2)CC1 [Compound 59, 1-[3,3-Dimethyl-2-(2-tetrahydro-pyran-4-yl-acetylamino)-butyryl]-4-(7-methoxy-2-phenyl-quinolin-4-yloxy)-pyrrolidine-2-carboxylic acid [1-(1-benzyl-cyclopropanesulfonylaminocarbonyl)-2-vinyl-cyclopropyl]-amide]
[1]
  IC50: < 50 nM
[2]; [3]
  EC50: 50 to 500 nM

## C=C[C@@H]1C[C@]1(NC(=O)[C@@H]1C[C@@H](Oc2cc(-c3ccccc3)nc3cc(OC)ccc23)CN1C(=O)[C@@H](NC(=O)Oc1ccc(C)cc1)C(C)(C)C)C(=O)NS(=O)(=O)C1(Cc2ccccc2)CC1 [Compound 100]
[1]
  IC50: 50 to 500 nM
[2]; [3]
  EC50: 500 to 5000 nM

## COc1ccc2c(O[C@@H]3C[C@@H](C(=O)N[C@]4(C(=O)NS(=O)(=O)C5(Cc6ccccc6)CC5)CC4C4CC4)N(C(=O)[C@@H](NC(=O)OC(C)(C)C)C(C)(C)C)C3)cc(-c3ccccc3)nc2c1 (some centres unmarked) [Compound 204]
[1]
  IC50: 50 to 500 nM
[2]; [3]
  EC50: 50 to 500 nM

## COc1ccc2c(O[C@@H]3C[C@@H](C(=O)N[C@]4(C(=O)NS(=O)(=O)C5(CC6CC6)CC5)CC4C4CC4)N(C(=O)[C@@H](NC(=O)OC(C)(C)C)C(C)(C)C)C3)cc(-c3ccccc3)nc2c1 (some centres unmarked) [Compound 205]
[1]
  IC50: < 50 nM
[2]; [3]
  EC50: 50 to 500 nM

## C=C[C@@H]1C[C@]1(NC(=O)[C@@H]1C[C@@H](Oc2cc(-c3ccccc3)nc3cc(OC)ccc23)CN1C(=O)[C@@H](NC(=O)Oc1ccccc1)C(C)(C)C)C(=O)NS(=O)(=O)C1(Cc2ccccc2)CC1 [Compound 101]
[1]
  IC50: 50 to 500 nM
[2]; [3]
  EC50: 500 to 5000 nM

## C=CC1C[C@]1(NC(=O)[C@@H]1C[C@@H](Oc2cc(-c3ccccc3)nc3cc(OC)ccc23)CN1C(=O)[C@@H](NC(=O)OC(C)(C)C)C(C)(C)C)C(=O)NS(=O)(=O)C1(Br)CC1 (some centres unmarked) [Compound 11, {1-[2-[1-(1-Bromocyclopropanesulfonylaminocarbonyl)-2-vinylcy-clopropylcarbamoyl]-4-(7-methoxy-2-phenylquinolin-4-yloxy)pyrrolidine-1-carbonyl]-2,2-dimethylpropyl}-carbamic acid tert-butyl ester]
[1]
  IC50: < 50 nM
[2]; [3]
  EC50: < 50 nM

## C=C[C@@H]1C[C@]1(NC(=O)[C@@H]1C[C@@H](Oc2cc(-c3ccccc3)nc3cc(OC)ccc23)CN1C(=O)[C@@H](NC(=O)OC(C)(C)C)C(C)(C)C)C(=O)NS(=O)(=O)C1(I)CC1 [Compound 39, {1-[2-[1-(1-Iodo-cyclopropanesulfonylaminocarbonyl)-2-vinyl-cyclopropylcarbamoyl]-4-(7-methoxy-2-phenyl-quinolin-4-yloxy)-pyrrolidine-1-carbonyl]-2,2-dimethyl-propyl}-carbamic acid tert-butyl ester]
[1]
  IC50: < 50 nM
[2]; [3]
  EC50: < 50 nM
